Experimental data published in ChEMBL document CHEMBL5365473, “Novel Sulfonylurea-Based NLRP3 Inflammasome Inhibitor for Efficient Treatment of Nonalcoholic Steatohepatitis, Endotoxic Shock, and Colitis” (J Med Chem, 2023).
The source made the active and inactive calls.

Legend:
[1] = Effect on immune cell numbers in MCS diet-fed C57BL/6 mouse assessed as effect on F4/80 expression at 40 mg/kg, po administered via gavage for 5 weeks by immunofluorescence staining based analysis; type: toxicity, organism-based; settings: in vivo, 840 h
Mus musculus [2] = assay: Antiinflammatory activity against MCD diet-induced NASH C57BL/6 mouse model assessed as reduction in liver steatosis at 40 mg/kg, po administered via gavage for 5 weeks by Sirius red staining based analysis; type: functional, organism-based
L02 = assay: Cytotoxicity against human HL7702 cells assessed as reduction in cell viability at 500 uM measured after 24 hrs by CCK8 assay; type: toxicity, cell-based; settings: l02, 24 h
[3] = Toxicity against female ICR mouse assessed as effect on body weight at 200 to 500 mg/kg administered via gavage for 12 days; type: organism-based; settings: in vivo, po, 288 h, dose 200-500 mg/kg, time 12 day
[4] = Toxicity against female ICR mouse assessed as effect on heart weight at 200 to 500 mg/kg administered via gavage for 12 days; type: organism-based; settings: in vivo, po, 288 h, dose 200-500 mg/kg, time 12 day
[5] = Toxicity against female ICR mouse assessed as effect on liver weight at 200 to 500 mg/kg administered via gavage for 12 days; type: organism-based; settings: in vivo, po, 288 h, dose 200-500 mg/kg, time 12 day
[6] = Toxicity against female ICR mouse assessed as effect on spleen weight at 200 to 500 mg/kg administered via gavage for 12 days; type: organism-based; settings: in vivo, po, 288 h, dose 200-500 mg/kg, time 12 day
[7] = Toxicity against female ICR mouse assessed as effect on kidney weight at 200 to 500 mg/kg administered via gavage for 12 days; type: organism-based; settings: in vivo, po, 288 h, dose 200-500 mg/kg, time 12 day
[8] = Toxicity against male ICR mouse assessed as effect on brain weight at 200 to 500 mg/kg administered via gavage for 12 days; type: organism-based; settings: in vivo, po, 288 h, dose 200-500 mg/kg, time 12 day
[9] = Toxicity against female ICR mouse assessed as effect on plasma ALT level at 200 to 500 mg/kg administered via gavage for 12 days; type: organism-based; settings: in vivo, po, 288 h, dose 200-500 mg/kg, time 12 day
[10] = Toxicity against female ICR mouse assessed as effect on ratio of plasma AST to ALT level at 200 to 500 mg/kg administered via gavage for 12 days; type: organism-based; settings: in vivo, po, 288 h, dose 200-500 mg/kg, time 12 day
[11] = Toxicity against male ICR mouse assessed as effect on plasma AST level at 200 to 500 mg/kg administered via gavage for 12 days; type: organism-based; settings: in vivo, po, 288 h, dose 200-500 mg/kg, time 12 day
[12] = Toxicity against male ICR mouse assessed as effect on plasma ALT level at 200 to 500 mg/kg administered via gavage for 12 days; type: organism-based; settings: in vivo, po, 288 h, dose 200-500 mg/kg, time 12 day
[13] = Toxicity against male ICR mouse assessed as effect on ratio of plasma AST to ALT level at 200 to 500 mg/kg administered via gavage for 12 days; type: organism-based; settings: in vivo, po, 288 h, dose 200-500 mg/kg, time 12 day
[14] = Toxicity against male ICR mouse assessed as effect on plasma creatinine level at 200 to 500 mg/kg administered via gavage for 12 days; type: organism-based; settings: in vivo, po, 288 h, dose 200-500 mg/kg, time 12 day
[15] = target: NACHT, LRR and PYD domains-containing protein 3 (Mus musculus) (UniProt Q8R4B8); assay: Inhibition of NLRP3 inflammasome in mouse J774.A1 cells assessed as inhibition of IL-1 beta secretion primed with LPS for 4.5 hrs followed by incubation with compound for 2.5 hrs and later stimulated with ATP for 30 mins by immunoblot analysis; type: cell-based; settings: dose 3-30 nM, time 3.0 hrs
[16] = target: NACHT, LRR and PYD domains-containing protein 3 (Mus musculus) (UniProt Q8R4B8); assay: Inhibition of NLRP3 inflammasome in mouse J774.A1 cells assessed as inhibition of caspase-1 activation at 30 nM primed with LPS for 4.5 hrs followed by incubation with compound for 24 hrs and later stimulated with nigericin for 1 hr by immunoblot analysis; type: cell-based; settings: time 25.0 hrs
[17] = target: NLR family CARD domain-containing protein 4 (Mus musculus) (UniProt Q3UP24); assay: Inhibition of NLRC4 inflammasome in mouse J774.A1 cells assessed as inhibition of caspase-1 activation at 30 nM primed with LPS for 4.5 hrs followed by incubation with compound for 24 hrs and later stimulated with flagellin for 24 hrs by immunoblot analysis; type: cell-based; settings: time 48.0 hrs
[18] = AUC (0 to infinity) in ICR mouse at 5 mg/kg, iv by LC-MS/MS analysis; type: ADME, organism-based; parameters: dose 5 mg/kg, route iv; settings: in vivo
[19] = MRT (0 to infinity) in ICR mouse at 5 mg/kg, iv by LC-MS/MS analysis; type: ADME, organism-based; settings: in vivo
[20] = Cmax in ICR mouse at 10 mg/kg, po by LC-MS/MS analysis; type: ADME, organism-based; parameters: dose 10 mg/kg, route po; settings: in vivo
[21] = Drug uptake in Sprague-Dawley rat stomach at 50 mg/kg, po measured for 24 hrs by LC-MS/MS analysis; type: ADME, organism-based; settings: in vivo
[22] = Drug uptake in Sprague-Dawley rat adipose tissue at 50 mg/kg, po measured for 24 hrs by LC-MS/MS analysis; type: ADME, organism-based; settings: in vivo
[23] = Drug uptake in Sprague-Dawley rat spleen at 50 mg/kg, po measured for 24 hrs by LC-MS/MS analysis; type: ADME, organism-based; settings: in vivo
[24] = Drug uptake in Sprague-Dawley rat brain at 50 mg/kg, po measured for 24 hrs by LC-MS/MS analysis; type: ADME, organism-based; settings: in vivo
Mus musculus [25] = assay: Antiinflammatory activity against MCD diet-induced NASH C57BL/6 mouse model assessed as improvement in liver morphology at 40 mg/kg, po administered via gavage for 5 weeks by H and E staining based analysis; type: functional, organism-based
Mus musculus [26] = assay: Antiinflammatory activity against MCD diet-induced NASH C57BL/6 mouse model assessed as reduction in balloon dilatation in liver at 40 mg/kg, po administered via gavage for 5 weeks by H and E staining based analysis; type: functional, organism-based
Mus musculus [27] = assay: Antiinflammatory activity against MCD diet-induced NASH C57BL/6 mouse model assessed as reduction in TUNEL-positive hepatic cells at 40 mg/kg, po administered via gavage for 5 weeks by TUNEL assay; type: functional, organism-based
Mus musculus [28] = assay: Antiinflammatory activity against MCD diet-induced NASH C57BL/6 mouse model assessed as reduction in immune cell infiltration by measuring reduction in F4/80-positive hepatic cells at 40 mg/kg, po administered via gavage for 5 weeks by immunofluorescence staining based analysis; type: functional, organism-based
Mus musculus [29] = assay: Antiinflammatory activity against MCD diet-induced NASH C57BL/6 mouse model assessed as reduction in immune cell infiltration by measuring reduction in CD45-positive hepatic cells at 40 mg/kg, po administered via gavage for 5 weeks by immunofluorescence staining based analysis; type: functional, organism-based
Mus musculus [30] = assay: Antiinflammatory activity against LPS-induced lethal septic shock C57BL/6 mouse model assessed as effect on TNF-alpha level at 40 mg/kg, ip administered for 1 hr prior to LPS challenge and measured after 2.5 hrs by ELISA; type: functional, organism-based; settings: time 3.5 hrs
Mus musculus [31] = assay: Antiinflammatory activity against DSS-induced ulcerative colitis C57BL/6 mouse assessed as reduction in crypt necrosis in colon at 10 mg/kg, ip administered for 9 days and measured on day 10 by H and E staining based analysis; type: functional, organism-based; settings: time 10.0 day

Sequence of NACHT, LRR and PYD domains-containing protein 3 (Mus musculus) (Q8R4B8 whole entry, the tested form may be a part): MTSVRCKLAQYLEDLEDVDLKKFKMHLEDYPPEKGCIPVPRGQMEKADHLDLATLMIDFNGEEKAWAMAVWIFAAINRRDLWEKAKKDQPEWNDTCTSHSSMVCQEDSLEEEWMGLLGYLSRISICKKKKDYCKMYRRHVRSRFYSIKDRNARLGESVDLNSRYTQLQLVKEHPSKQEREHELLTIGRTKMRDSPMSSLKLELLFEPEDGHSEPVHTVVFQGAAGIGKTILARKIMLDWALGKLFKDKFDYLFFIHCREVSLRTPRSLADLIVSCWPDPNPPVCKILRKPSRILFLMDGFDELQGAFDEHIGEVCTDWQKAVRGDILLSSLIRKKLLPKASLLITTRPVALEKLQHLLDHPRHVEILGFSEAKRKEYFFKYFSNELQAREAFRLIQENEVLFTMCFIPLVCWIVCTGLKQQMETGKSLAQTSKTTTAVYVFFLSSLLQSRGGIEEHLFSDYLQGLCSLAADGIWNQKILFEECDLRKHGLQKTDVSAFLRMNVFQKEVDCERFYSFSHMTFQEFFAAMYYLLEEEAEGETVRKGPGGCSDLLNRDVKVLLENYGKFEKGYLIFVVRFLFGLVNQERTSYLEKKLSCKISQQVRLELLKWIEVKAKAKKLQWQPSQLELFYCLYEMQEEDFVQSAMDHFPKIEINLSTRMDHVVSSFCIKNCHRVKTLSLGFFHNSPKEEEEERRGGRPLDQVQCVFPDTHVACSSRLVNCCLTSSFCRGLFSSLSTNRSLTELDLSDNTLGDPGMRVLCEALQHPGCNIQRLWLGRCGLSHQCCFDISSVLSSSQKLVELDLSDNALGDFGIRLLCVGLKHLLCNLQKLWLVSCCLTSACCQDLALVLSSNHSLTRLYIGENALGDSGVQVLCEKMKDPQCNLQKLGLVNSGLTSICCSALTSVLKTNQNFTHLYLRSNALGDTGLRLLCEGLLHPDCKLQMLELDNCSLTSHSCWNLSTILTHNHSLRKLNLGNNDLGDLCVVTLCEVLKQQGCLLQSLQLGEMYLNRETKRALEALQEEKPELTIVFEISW
Sequence of NLR family CARD domain-containing protein 4 (Mus musculus) (Q3UP24 whole entry, the tested form may be a part): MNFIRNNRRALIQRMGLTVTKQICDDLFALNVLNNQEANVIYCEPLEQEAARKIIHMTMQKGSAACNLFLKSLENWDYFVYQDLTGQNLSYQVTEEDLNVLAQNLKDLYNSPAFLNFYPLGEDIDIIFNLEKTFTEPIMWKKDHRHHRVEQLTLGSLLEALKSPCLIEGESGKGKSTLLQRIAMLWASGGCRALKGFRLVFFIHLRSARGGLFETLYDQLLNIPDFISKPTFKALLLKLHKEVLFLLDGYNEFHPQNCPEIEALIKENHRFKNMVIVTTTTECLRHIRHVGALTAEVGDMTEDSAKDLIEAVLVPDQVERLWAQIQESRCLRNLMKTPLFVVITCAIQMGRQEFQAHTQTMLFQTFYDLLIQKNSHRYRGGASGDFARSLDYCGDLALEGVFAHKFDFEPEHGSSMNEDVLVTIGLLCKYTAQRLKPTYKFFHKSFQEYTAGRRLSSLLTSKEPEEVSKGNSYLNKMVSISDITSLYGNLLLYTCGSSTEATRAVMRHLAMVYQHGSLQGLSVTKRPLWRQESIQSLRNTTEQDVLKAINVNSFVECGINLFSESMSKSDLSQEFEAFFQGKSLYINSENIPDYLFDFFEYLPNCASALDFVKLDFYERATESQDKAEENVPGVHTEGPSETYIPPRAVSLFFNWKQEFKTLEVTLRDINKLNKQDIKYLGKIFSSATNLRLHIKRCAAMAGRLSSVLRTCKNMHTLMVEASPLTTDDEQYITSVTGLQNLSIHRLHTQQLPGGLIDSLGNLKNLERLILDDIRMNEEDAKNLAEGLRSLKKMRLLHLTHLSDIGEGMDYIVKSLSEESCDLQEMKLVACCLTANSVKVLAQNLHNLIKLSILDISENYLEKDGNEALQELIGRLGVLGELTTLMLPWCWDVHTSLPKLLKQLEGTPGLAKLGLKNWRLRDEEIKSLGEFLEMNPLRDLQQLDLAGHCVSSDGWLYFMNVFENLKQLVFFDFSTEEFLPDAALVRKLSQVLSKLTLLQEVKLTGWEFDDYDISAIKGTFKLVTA

CN(C)Cc1ccc(S(=O)(=O)NC(=O)Nc2c3c(cc4c2CCC4)CCC3)cc1
inactive: inhibition [17] | Activity (Mus musculus [30])
Non-Toxic: Activity [1] | Activity (L02) | Activity [3] | Activity [4] | Activity [5] | Activity [6] | Activity [7] | Activity [8] | Activity [9] | Activity [10] | Activity [11] | Activity [12] | Activity [13] | Activity [14]
5.3 h: MRT inf [19]
active: Activity (Mus musculus [2]) | inhibition [15] Dose-Dependent Effect | inhibition [16] | Activity (Mus musculus [25]) | Activity (Mus musculus [26]) | Activity (Mus musculus [27]) | Activity (Mus musculus [28]) | Activity (Mus musculus [29]) | Activity (Mus musculus [31])
130 µg·h/mL: AUC(0-inf) [18]
Active: Drug uptake [21] | Drug uptake [22] | Drug uptake [23] | Drug uptake [24]
33900 ng/mL: Cmax [20]
